Values quoted from earlier work as cited in patent publication US20090197946A1, “COMPOSITION AND METHOD FOR TREATMENT OF INFLAMATION AND INFECTIONS OF THE GENITALIA, CONTRACEPTIVE AND THE PROPHYLAXIS OF SEXUALLY TRANSMITTED DISEASES” (priority 2008, published 2009).

How the values were obtained:
[1] = in vivo
[2] = tested on: vaginal epithelium; details: topical, African commercial sex workers

Molecule	known potential side effects [1]	effect of frequent use on the vaginal epithelium [2]	susceptibility to the HIV infection ([2]; frequent use)
CC(C)OC(=O)OCOP(=O)(CO[C@H](C)Cn1cnc2c(N)ncnc21)OCOC(=O)OC(C)C [Viread, Tenofovir]	nausea, diarrhea, vomiting and flatulence		
nonoxynol 9		damaged the vaginal epithelium	increased their susceptibility to the HIV infection
